Literature values as cited in patent publication US10196677B2, “Method for identification of sensitivity of a patient to telomerase inhibition therapy” (Geron Corporation, priority 2008, dated 2019).
Entries after “also recorded” stand apart in the source; their conditions may differ. [NPS] = N3'→P5' thiophosphoramidate linkage

Legend:
[1] = tested on: cancer cells; conditions: cell culture, various cancer cell types
[2] = tested on: animal tumor models; conditions: animal tumor models / human cancer cells, local and systemic delivery

Substance: GRN163: oligonucleotide with sequence TAGGGTTAGACAA (SEQ ID NO:2) and N3′→P5′ thiophosphoramidate (NPS) linkages; hTR template inhibitor (all [NPS], sugars by position and methylation of C not given here)
- Inhibitory activity / growth inhibition of cancer cells in vitro [1]: has shown inhibitory activity in vitro in cell culture; also recorded: have shown inhibitory activity in vitro
- Activity against tumors in vivo [2]: therapeutically effective
